Reference: patent US11267844B2, “Spirothietane nucleosides” (Janssen Pharmaceutica NV, priority 2017, dated 2022)

Experiments:
[1] = biological target: T1, dengue virus NS5 polymerase domain (DENVpol, serotype 2, New Guinea C strain) (Dengue virus type 2, UniProt P14340); assay: Dengue virus polymerase inhibition assay; type: biochemical, dengue virus serotype 2
T1 construct: The enzyme activity of dengue virus NS5 polymerase domain
Procedure: The enzyme activity of dengue virus NS5 polymerase domain (DENVpol, serotype 2, New Guinea C strain) is measured as an incorporation of tritiated NMP into acid-insoluble RNA products. DENVpol assay reactions contain recombinant enzyme, heteropolymeric RNA, about 0.5 μCi tritiated NTP, 0.33 μM of competing cold NTP, 40 mM HEPES (pH 7.5), 3 mM dithiothreitol, and 2 mM MgCl2. Standard reactions are incubated for 3 hours at 30° C., in the presence of increasing concentration of inhibitor. At the end of the reaction, RNA is precipitated with 10% TCA, and acid-insoluble RNA products are filtered on a size exclusion 96-well plate. After washing of the plate, scintillation liquid is added and radiolabeled RNA products are detected according to standard procedures with a Trilux Topcount scintillation counter. The compound concentration at which the enzyme-catalyzed rate is reduced by 50% (IC50) is calculated by fitting the data to a non-linear regression (sigmoidal).

[2] = biological target: HCV polymerase (Hepatitis C virus genotype 1b, UniProt Q9WMX2); assay: Biochemical HCV polymerase inhibition
HCV polymerase, sequence (Q9WMX2 2420-3010): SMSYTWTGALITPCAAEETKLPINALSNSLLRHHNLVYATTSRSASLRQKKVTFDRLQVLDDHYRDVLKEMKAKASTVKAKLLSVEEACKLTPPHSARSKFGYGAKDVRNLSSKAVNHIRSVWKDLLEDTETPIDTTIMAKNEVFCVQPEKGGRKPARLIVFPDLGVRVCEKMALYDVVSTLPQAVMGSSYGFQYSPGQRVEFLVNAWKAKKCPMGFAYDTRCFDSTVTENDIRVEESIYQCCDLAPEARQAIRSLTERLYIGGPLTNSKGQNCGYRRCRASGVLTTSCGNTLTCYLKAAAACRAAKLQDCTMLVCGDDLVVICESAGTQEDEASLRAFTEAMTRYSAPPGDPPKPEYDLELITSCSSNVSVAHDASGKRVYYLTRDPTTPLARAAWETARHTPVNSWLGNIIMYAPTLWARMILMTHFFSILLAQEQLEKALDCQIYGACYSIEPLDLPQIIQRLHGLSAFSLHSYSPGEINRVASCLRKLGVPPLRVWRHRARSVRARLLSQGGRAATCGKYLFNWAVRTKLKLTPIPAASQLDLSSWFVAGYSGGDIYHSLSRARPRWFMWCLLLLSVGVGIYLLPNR

SMILES | IC50 [1] [nM] | IC50 [2] [nM]
O=c1ccn([C@@H]2O[C@H](COP(=O)(O)OP(=O)(O)OP(=O)(O)O)[C@@H](O)[C@]23CCS3)c(=O)[nH]1 [Compound 58] | 49700 | 740
Nc1ccn([C@@H]2O[C@H](COP(=O)(O)OP(=O)(O)OP(=O)(O)O)[C@@H](O)[C@]23CCS3)c(=O)n1 [Compound 59] | 2910 | 320
O=c1ccn([C@@H]2O[C@](F)(COP(=O)(O)OP(=O)(O)OP(=O)(O)O)[C@@H](O)[C@]23CCS3)c(=O)[nH]1 [Compound 60] | > 10000 | 690
Nc1ccn([C@@H]2O[C@](F)(COP(=O)(O)OP(=O)(O)OP(=O)(O)O)[C@@H](O)[C@]23CCS3)c(=O)n1 [Compound 61] | 2440 | 160
Nc1nc2c(ncn2[C@@H]2O[C@H](COP(=O)(O)OP(=O)(O)OP(=O)(O)O)[C@@H](O)[C@]23CCS3)c(=O)[nH]1 [Compound 63] | > 10000 | 180
